“Also recorded” adds a separate entry of the source. Marks after values point to notes of the source that are not given here.
Key:
[1] = tested on: neuropathic pain (CHUNG), tactile stimulation; assay: Neuropathic pain (CHUNG) test, tactile stimulation on lesioned paw; format: in vivo, rat; settings: for FORCE INDUCING PAW-WITHDRAWAL, % change: compared with lesioned control; for FORCE INDUCING PAW-WITHDRAWAL, mean ± s.e.m.: lesioned paw
Text: The following Tables 8 and 9 show the effects of harkoseride (hereinafter referred tows SPM 927), carbamazepine, levetiracetam, gabapentin and morphine in the neuropathic pain (CHUNG) test in the rat. Eight (8) rats per group were used.

[2] = tested on: chronic constriction injury-induced thermal hyperalgesia; assay: CCI model: thermal hyperalgesia (radiant heat withdrawal latency); format: in vivo, rat; settings: for Thermal hyperalgesia, withdrawal latency, Post-op + Drug: ligated hind paw, ±SEM
Experimental: (§1) The effectiveness of harkoseride in reducing spontaneous chronic pain, mechanical allodynia, and thermal hyperalgesia was tested using the chronic constriction injury (CCI) model of peripheral neuropathy, one of the best characterised in vivo animal models used to study chronic pain due to peripheral nerve injury. In this model, loose ligatures are placed around the sciatic nerve, which produces axonal swelling and a partial deafferentation manifested as a significant but incomplete loss of axons in the distal portion of the peripheral nerve. One of the prominent behaviours seen following sciatic nerve ligation is the appearance of hind paw guarding, thought to be an indication of an ongoing spontaneous chronic pain. Support for this idea is derived from reports of increased spinal cord neural activity, and increased spontaneous neuronal discharge in spinothalamic tract neurons and in the ventrobasal thalamus in the absence of overt peripheral stimulation. In addition to the appearance of spontaneous pain behaviours, several abnormalities in stimulus evoked pain occur as a result of CCI, including thermal hyperalgesia and mechanical allodynia. The development of these abnormal stimulus-evoked pains has also been reported as occurring in areas outside the territory of the damaged nerve, areas innervated by uninjured nerves.
(§2) Behavioural tests for spontaneous pain, thermal hyperalgesia, and mechanical allodynia were conducted to evaluate different components of neuropathic pain. Baseline data for each test was collected prior to any experimental procedure; in addition, all animals were tested for the development of chronic pain behaviours 13-25 days after CCI surgery 1 day prior to the day of vehicle (0.04 ml sterile water/10 g body weight) or drug administration and after vehicle/drug administration. The sequence of the tests was (1) spontaneous pain-related behaviour (2) mechanical allodynia, (3) thermal hyperalgesia in order to minimise the influence of one test on the result of the next. The testing procedures and results are presented separately for each aspect of chronic pain. Either 0 (vehicle, 0.04 ml/10 g body weight), 5, 10, 20 or 40 mg/kg of SPM 927 (n=7-23/group) was administered i.p. 15 minutes before the first behavioural test.
Thermal hyperalgesia was assessed by means of withdrawal latency in response to radiant heat applied to the subplantar surface of the ligated rat hind paw. As compared to the baseline latency (s), a significant decrease in the (postoperative) latency of foot withdrawal in response to the thermal stimulus was interpreted as indicating the presence of thermal hyperalgesia following chronic constriction injury.

[3] = tested on: formalin-induced tonic inflammatory nociceptive behaviour; assay: Formalin test, rat (weighted behavioural scoring); format: in vivo; settings: for Weighted pain score: score 0-3, ±SEM; for effect on formalin-induced nociceptive behaviour (in words): i.p. just prior to formalin, 5-40 mg/kg, late phase
Experimental: The formalin test is a chemically-induced tonic pain model in which biphasic changes of nociceptive behaviour are assessed and spinal/supraspinal plasticity of nociception is considered as a molecular basis for neuropathic pain particularly during the second (=late) phase of the test, during which most clinically used drugs against neuropathic pain are active.
The compound was tested for anti-nociceptive properties by use of the weighted behavioural scoring method: Freely moving animals underwent observational assessment of the position of the left hind paw according to a rating score scaled 0-3 before and 10, 20, 30 and 40 min after injection of 0.05 ml of sterile 2.5% formalin under the skin on the dorsal surface of the paw.

[4] = tested on: Carrageenan-induced mechanical hyperalgesia; assay: Carrageenan-induced mechanical hyperalgesia, paw pressure (Randall-Sellito) test; format: in vivo, rats; settings: for nociceptive threshold: inflamed paw, 3 h after carrageenan
Experimental: Carrageenan-induced mechanical hyperalgesia in rats was induced by subplantar injection of a 0.1 ml of a 2% carrageenan suspension and measured 3 h afterwards by the paw pressure (Randall-Sellito) test.
Drugs and experimental design: SPM 927 and GBP were suspended in 1% methylcellulose and administered i.p. at doses of 10 mg/kg, 20 mg/kg and 40 mg/kg. Pre-treatment time was 30 min before pain measurement. One group of animals served as controls and consequently received an injection of solvent (10 ml/kg) and another group of animals received a reference compound (Carrageenan test: 10 mg/kg indomethacin; Formalin test: 10 mg/kg morphine). Each compound was tested in a separate experiment and each experiment included a control and a reference group. 10 rats per group were used in the Carrageenan test and 6 mice per group in the formalin test.

[5] = tested on: mechanical allodynia induced by unilateral nerve ligation; assay: CCI model: mechanical allodynia (electronic Von Frey); format: in vivo, rat; settings: for Mechanical allodynia, pressure to elicit foot withdrawal, Post-op + Drug: ligated hind paw, ±SEM
Experimental: as §1, §2
Mechanical sensitivity and allodynia of the ligated rat hind paw was quantified by brisk foot withdrawal in response to normally innocuous mechanical stimuli as described previously. Responsiveness to mechanical stimuli was tested with a calibrated electronic Von Frey pressure algometer connected to an online computerised data collection system. A significant decrease in the post operative compared to baseline pressure (g/mm^2) necessary to elicit a brisk foot withdrawal in response to this mechanical stimulus is interpreted as mechanical allodynia.

[6] = tested on: spontaneous pain induced by unilateral chronic constriction injury; assay: Chronic constriction injury (CCI, Bennett model): spontaneous pain; format: in vivo, rat; settings: for Spontaneous nociception, weighted pain score, Post-op + Drug: ligated paw, score 0-5, ±SEM
Experimental: as §1, §2
Spontaneous pain (ongoing pain without an apparent external stimulus) of the ligated paw was assessed for 5 min following a 10 min acclimation period by use of a rating score (weighted behaviour score scaled 0-5).

Question: With `COC[C@@H](NC(C)=O)C(=O)NCc1ccccc1` [SPM 927, (R)-2-Acetamido-N-benzyl-3-methoxypropionamide] as the compound, how does the “FORCE INDUCING PAW-WITHDRAWAL, % change” value ([1]; 8 mg/kg i.p. -30 min) read?
Answer: Its value is “+56% (b)”.

Question: What about the “FORCE INDUCING PAW-WITHDRAWAL, mean ± s.e.m.” value ([1]; 8 mg/kg i.p. -30 min) of the same compound?
Answer: The value was 27.2 ± 4.9 NS (b) g.

Question: And the “FORCE INDUCING PAW-WITHDRAWAL, % change” value ([1]; 16 mg/kg i.p. -30 min)?
Answer: The value was “+40% (b)”.

Question: And the “FORCE INDUCING PAW-WITHDRAWAL, mean ± s.e.m.” value ([1]; 16 mg/kg i.p. -30 min)?
Answer: Its value is 24.4 ± 3.0 NS (b) g.

Question: And the “FORCE INDUCING PAW-WITHDRAWAL, % change” value ([1]; 32 mg/kg i.p. -30 min)?
Answer: Its value is “+116% (b)”.

Question: What about the “FORCE INDUCING PAW-WITHDRAWAL, mean ± s.e.m.” value ([1]; 32 mg/kg i.p. -30 min) of the same compound?
Answer: The value was 37.6 ± 6.1 (b) g.

Question: And the “comparison of effects in the CHUNG test (in words)” value ([1]; tactile and thermal stimulation, i.p.)?
Answer: Its value is “minimum comparable, but usually more potent than the reference compounds”.

Question: And the “Thermal hyperalgesia, withdrawal latency, Post-op + Drug” value (shortened to “Thermal hyperalgesia … Post-op + Drug”) ([2]; 5 mg/kg i.p.)?
Answer: Its value is 9.2 ± 0.98 s.

Question: What about the “Thermal hyperalgesia … Post-op + Drug” value ([2]; 10 mg/kg i.p.) of the same compound?
Answer: Its value is 8.1 ± 0.59 s.

Question: What about the “Thermal hyperalgesia … Post-op + Drug” value ([2]; 20 mg/kg i.p.) of the same compound?
Answer: The value was 9.7 ± 0.96 s.

Question: And the “Thermal hyperalgesia … Post-op + Drug” value ([2]; 40 mg/kg i.p.)?
Answer: Its value is 10.2 ± 0.75 s.

Question: What about the “effect on thermal hyperalgesia (in words)” value ([2]; 5-40 mg/kg i.p.) of the same compound?
Answer: The value was “dose dependently reduced”.

Question: And the “dose at which the maximum effect on thermal hyperalgesia is seen” value ([2]; i.p.)?
Answer: The value was 20 mg/kg.

Question: What about the Weighted pain score ([3]; 5 mg/kg i.p., 10 min after formalin) of the same compound?
Answer: Its Weighted pain score is 0.31 ± 0.11.

Question: And the Weighted pain score ([3]; 5 mg/kg i.p., 20 min after formalin)?
Answer: The Weighted pain score was 0.78 ± 0.23.

Question: And the Weighted pain score ([3]; 5 mg/kg i.p., 30 min after formalin)?
Answer: The Weighted pain score was 1.47 ± 0.20.

Question: What about the Weighted pain score ([3]; 5 mg/kg i.p., 40 min after formalin) of the same compound?
Answer: The Weighted pain score was 1.46 ± 0.19.

Question: And the Weighted pain score ([3]; 10 mg/kg i.p., 10 min after formalin)?
Answer: Its Weighted pain score is 0.42 ± 0.17.

Question: And the Weighted pain score ([3]; 10 mg/kg i.p., 20 min after formalin)?
Answer: The Weighted pain score was 0.33 ± 0.16.

Question: And the Weighted pain score ([3]; 10 mg/kg i.p., 30 min after formalin)?
Answer: The Weighted pain score was 1.02 ± 0.27.

Question: What about the Weighted pain score ([3]; 10 mg/kg i.p., 40 min after formalin) of the same compound?
Answer: The Weighted pain score was 1.05 ± 0.19.

Question: What about the Weighted pain score ([3]; 20 mg/kg i.p., 10 min after formalin) of the same compound?
Answer: The Weighted pain score was 0.48 ± 0.18.

Question: What about the Weighted pain score ([3]; 20 mg/kg i.p., 20 min after formalin) of the same compound?
Answer: Its Weighted pain score is 0.57 ± 0.14.

Question: And the Weighted pain score ([3]; 20 mg/kg i.p., 30 min after formalin)?
Answer: The Weighted pain score was 0.78 ± 0.18.

Question: And the Weighted pain score ([3]; 20 mg/kg i.p., 40 min after formalin)?
Answer: Its Weighted pain score is 1.02 ± 0.24.

Question: What about the Weighted pain score ([3]; 40 mg/kg i.p., 10 min after formalin) of the same compound?
Answer: The Weighted pain score was 0.12 ± 0.05.

Question: What about the Weighted pain score ([3]; 40 mg/kg i.p., 20 min after formalin) of the same compound?
Answer: The Weighted pain score was 0.10 ± 0.04.

Question: What about the Weighted pain score ([3]; 40 mg/kg i.p., 30 min after formalin) of the same compound?
Answer: The Weighted pain score was 0.09 ± 0.06.

Question: And the Weighted pain score ([3]; 40 mg/kg i.p., 40 min after formalin)?
Answer: The Weighted pain score was 0.12 ± 0.06.

Question: What about the “effect on formalin-induced nociceptive behaviour (in words)” value ([3]; listed as Harkoseride) of the same compound?
Answer: The value was “dose dependant reduction”.

Question: And the “effect on formalin-induced nociceptive behaviour (in words)” value ([3]; listed as harkoseride)?
Answer: Its value is “Significant and dose dependent efficacy”.

Question: And the nociceptive threshold ([4]; 10 mg/kg i.p. 30 min before measurement)?
Answer: Its nociceptive threshold is 324 ± 15^b.

Question: And the nociceptive threshold ([4]; 20 mg/kg i.p. 30 min before measurement)?
Answer: Its nociceptive threshold is 426 ± 24^b.

Question: What about the nociceptive threshold ([4]; 40 mg/kg i.p. 30 min before measurement) of the same compound?
Answer: The nociceptive threshold was 444 ± 13^b.

Question: And the “effect on Carrageenan-induced mechanical hyperalgesia (in words)” value ([4]; 10, 20, 40 mg/kg i.p.)?
Answer: The value was “full reversal; also recorded: comparable to that of the reference compound Indomethacin”.

Question: And the “Mechanical allodynia, pressure to elicit foot withdrawal, Post-op + Drug” value (“Mechanical allodynia, pressure” for short) ([5]; 5 mg/kg i.p.)?
Answer: Its value is 21.8 ± 2.34 g/mm^2.

Question: What about the “Mechanical allodynia, pressure” value ([5]; 10 mg/kg i.p.) of the same compound?
Answer: The value was 29.2 ± 2.85 g/mm^2.

Question: What about the “Mechanical allodynia, pressure” value ([5]; 20 mg/kg i.p.) of the same compound?
Answer: The value was 39.6 ± 3.62 g/mm^2.

Question: And the “Mechanical allodynia, pressure” value ([5]; 40 mg/kg i.p.)?
Answer: The value was 43.0 ± 5.48 g/mm^2.

Question: And the “effect on intensity of mechanical allodynia (in words)” value ([5]; 5-40 mg/kg i.p.)?
Answer: Its value is “dose dependently reduced”.

Question: And the “Spontaneous nociception, weighted pain score, Post-op + Drug” value (“Spontaneous nociception” below) ([6]; 5 mg/kg i.p.)?
Answer: Its value is 1.8 ± 0.18.

Question: And the “Spontaneous nociception” value ([6]; 10 mg/kg i.p.)?
Answer: The value was 1.5 ± 0.11.

Question: What about the “Spontaneous nociception” value ([6]; 20 mg/kg i.p.) of the same compound?
Answer: Its value is 0.9 ± 0.14.

Question: And the “Spontaneous nociception” value ([6]; 40 mg/kg i.p.)?
Answer: The value was 0.8 ± 0.28.

Question: And the “effect on level of spontaneous pain (in words)” value ([6]; 5-40 mg/kg i.p.)?
Answer: Its value is “did not change”.
